Experimental data taken from ChEMBL document CHEMBL4627395, “Cytotoxic Heptaketides from the Endolichenic Fungus Ulospora bilgramii” (J Nat Prod, 2020).
The source made the active and inactive calls. No cut-off for these calls is given here.

What was measured:
A549 [1] = assay: Cytotoxicity against human A549 cells incubated for 48 hrs by MTT assay; type: functional, cell-based; conditions: A549, 48 h
MCF7 = assay: Cytotoxicity against human MCF7 cells incubated for 48 hrs by MTT assay; type: functional, cell-based; conditions: MCF7, 48 h
KB = assay: Cytotoxicity against human KB cells incubated for 48 hrs by MTT assay; type: functional, cell-based
A549 [2] = assay: Induction of cell cycle arrest in human A549 cells assessed as accumulation at G0/G1 phase incubated for 24 hrs by flow cytometry; type: functional, cell-based
A549 [3] = assay: Induction of cell cycle arrest in human A549 cells assessed as accumulation at G0/G1 phase at 13.6 uM incubated for 24 hrs by flow cytometry (reference value: 55.79%); type: functional
A549 [4] = assay: Induction of cell cycle arrest in human A549 cells assessed as accumulation at S phase at 13.6 uM incubated for 24 hrs by flow cytometry (reference value: 33.65%); type: functional
A549 [5] = assay: Induction of cell cycle arrest in human A549 cells assessed as accumulation at G2/M phase at 13.6 uM incubated for 24 hrs by flow cytometry (reference value: 10.38%); type: functional
A549 [6] = assay: Induction of cell cycle arrest in human A549 cells assessed as accumulation at G0/G1 phase at 1.25 uM incubated for 24 hrs by flow cytometry (reference value: 55.79%); type: functional
A549 [7] = assay: Induction of cell cycle arrest in human A549 cells assessed as accumulation at S phase at 1.25 uM incubated for 24 hrs by flow cytometry (reference value: 33.65%); type: functional
A549 [8] = assay: Induction of cell cycle arrest in human A549 cells assessed as accumulation at G2/M phase at 1.25 uM incubated for 24 hrs by flow cytometry (reference value: 10.38%); type: functional
A549 [9] = assay: Induction of cell cycle arrest in human A549 cells assessed as accumulation at G0/G1 phase at 2.5 uM incubated for 24 hrs by flow cytometry (reference value: 55.79%); type: functional
A549 [10] = assay: Induction of cell cycle arrest in human A549 cells assessed as accumulation at S phase at 2.5 uM incubated for 24 hrs by flow cytometry (reference value: 33.65%); type: functional
A549 [11] = assay: Induction of cell cycle arrest in human A549 cells assessed as accumulation at G2/M phase at 2.5 uM incubated for 24 hrs by flow cytometry (reference value: 10.38%); type: functional
A549 [12] = assay: Induction of cell cycle arrest in human A549 cells assessed as accumulation at G0/G1 phase at 5 uM incubated for 24 hrs by flow cytometry (reference value: 55.79%); type: functional
A549 [13] = assay: Induction of cell cycle arrest in human A549 cells assessed as accumulation at S phase at 5 uM incubated for 24 hrs by flow cytometry (reference value: 33.65%); type: functional
A549 [14] = assay: Induction of cell cycle arrest in human A549 cells assessed as accumulation at G2/M phase at 5 uM incubated for 24 hrs by flow cytometry (reference value: 10.38%); type: functional
A549 [15] = assay: induction of morphological changes in human A549 cells assessed as cell shrinkage at 1.25 to 5 uM incubated for 24 hrs by DAPI-staining based microscopic method; type: functional
A549 [16] = assay: induction of morphological changes in human A549 cells assessed as appearance of apoptotic bodies at 1.25 to 5 uM incubated for 24 hrs by DAPI-staining based microscopic method; type: functional, cell-based
A549 [17] = assay: Induction of apoptosis in human A549 cells after 24 hrs by Annexin-V-FITC/propidium iodide staining based flow cytometric method; type: functional, cell-based
A549 [18] = assay: Induction of apoptosis in human A549 cells assessed as early apoptotic cells at 13.6 uM after 24 hrs by Annexin-V-FITC/propidium iodide staining based flow cytometric method (reference value: 0.56%); type: functional
A549 [19] = assay: Induction of apoptosis in human A549 cells assessed as late apoptotic cells at 13.6 uM after 24 hrs by Annexin-V-FITC/propidium iodide staining based flow cytometric method (reference value: 1.40%); type: functional
A549 [20] = assay: Induction of apoptosis in human A549 cells assessed as necrotic cells at 13.6 uM after 24 hrs by Annexin-V-FITC/propidium iodide staining based flow cytometric method (reference value: 1.12%); type: functional
A549 [21] = assay: Induction of apoptosis in human A549 cells assessed as early apoptotic cells at 1.25 uM after 24 hrs by Annexin-V-FITC/propidium iodide staining based flow cytometric method (reference value: 0.56%); type: functional
A549 [22] = assay: Induction of apoptosis in human A549 cells assessed as late apoptotic cells at 1.25 uM after 24 hrs by Annexin-V-FITC/propidium iodide staining based flow cytometric method (reference value: 1.40%); type: functional
A549 [23] = assay: Induction of apoptosis in human A549 cells assessed as necrotic cells at 1.25 uM after 24 hrs by Annexin-V-FITC/propidium iodide staining based flow cytometric method (reference value: 1.12%); type: functional
A549 [24] = assay: Induction of apoptosis in human A549 cells assessed as early apoptotic cells at 2.5 uM after 24 hrs by Annexin-V-FITC/propidium iodide staining based flow cytometric method (reference value: 0.56%); type: functional
A549 [25] = assay: Induction of apoptosis in human A549 cells assessed as late apoptotic cells at 2.5 uM after 24 hrs by Annexin-V-FITC/propidium iodide staining based flow cytometric method (reference value: 1.40%); type: functional
A549 [26] = assay: Induction of apoptosis in human A549 cells assessed as necrotic cells at 2.5 uM after 24 hrs by Annexin-V-FITC/propidium iodide staining based flow cytometric method (reference value: 1.12%); type: functional
A549 [27] = assay: Induction of apoptosis in human A549 cells assessed as early apoptotic cells at 5 uM after 24 hrs by Annexin-V-FITC/propidium iodide staining based flow cytometric method (reference value: 0.56%); type: functional
A549 [28] = assay: Induction of apoptosis in human A549 cells assessed as late apoptotic cells at 5 uM after 24 hrs by Annexin-V-FITC/propidium iodide staining based flow cytometric method (reference value: 1.40%); type: functional
A549 [29] = assay: Induction of apoptosis in human A549 cells assessed as necrotic cells at 5 uM after 24 hrs by Annexin-V-FITC/propidium iodide staining based flow cytometric method (reference value: 1.12%); type: functional
A549 [30] = assay: Induction of ROS generation in human A549 cells incubated for 24 hrs by DCFH-DA staining-based flow cytometric analysis relative to control; type: functional, cell-based
A549 [31] = assay: Induction of ROS generation in human A549 cells assessed as increase in fluorescence intensity at 5 uM incubated for 24 hrs by DCFH-DA staining-based flow cytometric analysis relative to control; type: functional
[32] = target: DNA topoisomerase 2-alpha (Homo sapiens) (UniProt P11388); assay: Inhibition of human topoisomerase-2alpha expressed in baculovirus infected insect cells assessed as reduction in pBR322 DNA relaxation measured after 30 mins by ethidium bromide staining based agarose gel electrophoresis method relative to control
A549 [33] = assay: Induction of DNA damage in human A549 cells assessed as gammaH2AX accumulation incubated for 24 hrs by DAPI staining based Immunofluorescence method; type: functional, cell-based

DNA topoisomerase 2-alpha (Homo sapiens), sequence (P11388 whole entry): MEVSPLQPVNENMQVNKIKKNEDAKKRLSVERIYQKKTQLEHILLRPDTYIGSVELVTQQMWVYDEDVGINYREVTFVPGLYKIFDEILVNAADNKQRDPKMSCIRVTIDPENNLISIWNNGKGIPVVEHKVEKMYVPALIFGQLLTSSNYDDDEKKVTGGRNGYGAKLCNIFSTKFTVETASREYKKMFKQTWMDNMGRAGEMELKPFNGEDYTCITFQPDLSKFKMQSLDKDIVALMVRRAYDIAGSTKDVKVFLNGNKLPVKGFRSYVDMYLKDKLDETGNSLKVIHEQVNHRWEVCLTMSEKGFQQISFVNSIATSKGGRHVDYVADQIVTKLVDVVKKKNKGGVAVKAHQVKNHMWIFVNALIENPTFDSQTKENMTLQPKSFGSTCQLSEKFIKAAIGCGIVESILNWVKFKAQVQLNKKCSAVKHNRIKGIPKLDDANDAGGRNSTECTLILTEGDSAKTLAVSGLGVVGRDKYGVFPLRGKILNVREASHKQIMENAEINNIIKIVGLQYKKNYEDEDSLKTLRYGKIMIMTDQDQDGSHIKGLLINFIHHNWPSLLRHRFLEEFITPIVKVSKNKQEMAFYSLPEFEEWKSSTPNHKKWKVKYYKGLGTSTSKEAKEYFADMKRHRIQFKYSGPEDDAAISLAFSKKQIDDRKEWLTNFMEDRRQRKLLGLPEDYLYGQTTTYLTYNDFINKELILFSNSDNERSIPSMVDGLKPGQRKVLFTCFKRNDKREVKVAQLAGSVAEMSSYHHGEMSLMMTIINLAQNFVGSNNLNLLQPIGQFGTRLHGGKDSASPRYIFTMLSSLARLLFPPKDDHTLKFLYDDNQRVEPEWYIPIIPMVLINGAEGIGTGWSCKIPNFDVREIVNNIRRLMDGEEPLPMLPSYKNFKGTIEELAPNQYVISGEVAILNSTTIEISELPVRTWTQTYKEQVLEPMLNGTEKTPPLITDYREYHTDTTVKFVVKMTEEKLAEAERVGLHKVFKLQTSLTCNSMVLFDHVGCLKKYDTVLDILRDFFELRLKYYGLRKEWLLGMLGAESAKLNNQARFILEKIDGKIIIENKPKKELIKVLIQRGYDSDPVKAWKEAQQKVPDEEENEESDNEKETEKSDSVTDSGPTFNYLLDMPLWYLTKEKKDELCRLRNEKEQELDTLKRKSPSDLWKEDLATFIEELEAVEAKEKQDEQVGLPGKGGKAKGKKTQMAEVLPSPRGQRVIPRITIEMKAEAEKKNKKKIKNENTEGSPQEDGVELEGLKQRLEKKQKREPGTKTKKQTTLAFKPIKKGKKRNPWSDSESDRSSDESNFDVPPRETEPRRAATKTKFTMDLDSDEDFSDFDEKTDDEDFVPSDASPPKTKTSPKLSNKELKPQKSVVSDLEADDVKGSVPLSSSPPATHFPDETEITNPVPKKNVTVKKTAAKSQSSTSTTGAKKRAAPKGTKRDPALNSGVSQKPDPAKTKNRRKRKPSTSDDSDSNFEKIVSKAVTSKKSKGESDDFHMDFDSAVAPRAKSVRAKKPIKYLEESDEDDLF

COc1cc(O)c2c(c1)C(=O)C1=C(C2=O)[C@](C)(OC)OCC1 was tested, and the IC50 (A549 [1]) was 28.2 µM, the IC50 (MCF7) was 11.6 µM and the IC50 (KB) was 16.6 µM.
With COc1cc(O)c2c(c1)[C@H](O)[C@H](C)CC2=O the IC50 (A549 [1]) was > 40 µM, the IC50 (MCF7) was > 40 µM and the IC50 (KB) was > 40 µM.
COc1cc(C)c(Cc2c(C)cc(O)cc2OC)c(O)c1 was tested, and the IC50 (A549 [1]) was > 40 µM, the IC50 (MCF7) was > 40 µM and the IC50 (KB) was > 40 µM.
COc1cc(O)c2c(c1)C(=O)c1c(coc1[C@H](C)O)C2=O was tested, and the IC50 (A549 [1]) was > 40 µM, the IC50 (MCF7) was > 40 µM and the IC50 (KB) was > 40 µM.
For COc1cc(O)c2c(c1)C(=O)c1cc(C)ncc1C2=O, the IC50 (A549 [1]) was > 40 µM, the IC50 (MCF7) was > 40 µM and the IC50 (KB) was > 40 µM.
COc1cc(O)c2c(c1)C(=O)C1=C(C2=O)[C@H](OC[C@@H]2C(=O)CC[C@H]2C)OC(C)=C1 showed an IC50 (A549 [1]) of 1.3 µM, an IC50 (MCF7) of 1.3 µM and an IC50 (KB) of 3 µM. For the same compound, the Activity (A549 [2]) was “Dose-dependent effect”, the Activity (A549 [3]) was 30.93% and the Activity (A549 [4]) was 24.26%. It also gave an Activity (A549 [5]) of 44.81%, an Activity (A549 [6]) of 59.51% and an Activity (A549 [7]) of 33.31%. It also gave an Activity (A549 [8]) of 7.18%, an Activity (A549 [9]) of 66.37% and an Activity (A549 [10]) of 30.07%. It also gave an Activity (A549 [11]) of 3.56%, an Activity (A549 [12]) of 69.15% and an Activity (A549 [13]) of 29.74%. For the same compound, the Activity (A549 [14]) was 1.11%, the Activity (A549 [15]) was “Active” and the Activity (A549 [16]) was “Active”. The Activity (A549 [17]) was “Dose-dependent effect”, the Activity (A549 [18]) was 6.79% and the Activity (A549 [19]) was 5.02%. It also gave an Activity (A549 [20]) of 2.15%, an Activity (A549 [21]) of 0.98% and an Activity (A549 [22]) of 1.14%. For the same compound, the Activity (A549 [23]) was 0.73%, the Activity (A549 [24]) was 0.87% and the Activity (A549 [25]) was 2.69%. For the same compound, the Activity (A549 [26]) was 1.3%, the Activity (A549 [27]) was 1.8% and the Activity (A549 [28]) was 10.75%. The Activity (A549 [29]) was 7.75%, the Activity (A549 [30]) was “Dose-dependent effect” and the “fold change (FC)” value (A549 [31]) was 5. The inhibition [32] was “Active” and the Activity (A549 [33]) was “Dose-dependent effect”.
With COc1cc(C)cc(O)c1 the IC50 (A549 [1]) was > 40 µM, the IC50 (MCF7) was > 40 µM and the IC50 (KB) was > 40 µM.
With COc1cc(O)c2c(c1)[C@@H]1O[C@]3(C)C[C@@H]1[C@@H](CO3)C2=O the IC50 (A549 [1]) was > 40 µM, the IC50 (MCF7) was > 40 µM and the IC50 (KB) was > 40 µM.
COc1cc(O)c2c(c1)C(=O)C1=C(COC(C)=C1)C2=O was tested, and the IC50 (A549 [1]) was > 40 µM, the IC50 (MCF7) was > 40 µM and the IC50 (KB) was > 40 µM.
In the case of COc1cc(O)c2c(c1)C(=O)C1=C(C2=O)C(O)OC(C)=C1 (stereo not given) [ASCOMYCONE B], the IC50 (A549 [1]) is reported as > 40 µM, the IC50 (MCF7) is reported as > 40 µM and the IC50 (KB) is reported as > 40 µM.
With COc1cc(O)c2c(c1)C(=O)C1=C(COC(C)(O)C1)C2=O (stereo not given) the IC50 (A549 [1]) was > 40 µM, the IC50 (MCF7) was > 40 µM and the IC50 (KB) was > 40 µM.
